Test results reported in US20140296143A1, “Angiotensin-(1-7) As A Chemoprevention Agent” (Wake Forest Innovations, priority 2008, published 2014).
pIC50: −log10 of the molar value.

Experiments:
[1] = test system: lung tumors in Ki-ras^G12C mice; assay: Ki-ras^G12C bi-transgenic mouse model of lung tumorigenesis, DOX-induced; type: in vivo
Experimental: Tumors were fixed with 4% paraformaldehyde for 24 h and incubated in 70% ethanol for 48 h prior to embedding in paraffin. The embedded tumors were cut into five micron thick sections and stained with hematoxylin and eosin to determine morphology. Cell proliferation in the tumors was detected by immunostaining with an antibody to Ki67 (1:25; Abcam, Cambridge, Mass.) using the labeled streptavidin biotin method, as described previously (Floyd et al., Carcinogenesis, 2005, 26:2196-2206). Stained sections were visualized and photographed with a video image analysis system (Scion, Inc., Frederick, Md.) and public domain software (NIH Image v1.60). A computer-assisted counting technique with a grid filter to select cells was used to quantify the immunohistochemical staining of Ki67 (Stute et al., Fertil. Steril., 2004, 82:1160-1170). The positive cells were expressed as a percentage of the total cell number examined (100 cells sampled from each tissue site within each lung tumor section).
A novel model for the induction of lung tumors in mice, a bi-transgenic mouse that expresses the mutant human Ki-ras^G12C allele in a tet-inducible and lung-specific manner was generously supplied by Dr. Mark Miller of the Department of Cancer Biology, Wake Forest University School of Medicine, for use in these experiments.
For these experiments, sixteen (16) bi-transgenic mice were produced by crossing mono-transgenic Ki-ras^G12C mice with Clara cell secretory protein-reverse tet trans-activator (CCSP-rtTA) transgenic mice. The presence of both transgenes was verified by genotyping.

[2] = test system: A549 lung cancer cells; assay: Serum-stimulated ^3H-thymidine incorporation, A549; type: cell-based, human; details: A549, 1% FBS, daily addition of 100 nM
Experimental: Unless otherwise stated, cells were grown in DMEM with 10% fetal bovine serum (FBS), 100 μg/mL penicillin and 100 units/mL streptomycin in a humidified 37° C. incubator gassed with 5% CO2 and 95% room air. Cells were grown to subconfluence in either 24-well cluster plates or 100 mm dishes and made quiescent by treatment for 48 h with serum-depleted growth media, prior to the experiments outlined below to measure cell growth (^3H-thymidine incorporation), cell signaling or apoptosis.

[3] = test system: ZR-75-1 breast cancer cells; type: cell-based, human
Experimental: Unless otherwise stated, cells were grown in DMEM with 10% fetal bovine serum (FBS), […] in a humidified 37° C. incubator gassed with 5% CO2 and 95% room air. Cells were grown to subconfluence in either 24-well cluster plates or 100 mm dishes and made quiescent by treatment for 48 h with serum-depleted growth media, prior to the experiments outlined below to measure cell growth (^3H-thymidine incorporation), cell signaling or apoptosis.
[…] Subsequently, the cell monolayer was washed with cold phosphate-buffered saline (PBS; 50 mM NaPO4, 120 mM NaCl, pH=7.2). The adherent cells were precipitated with cold 10% TCA (4° C. for 30 min) and dissolved in 0.2% SDS in 0.1 N NaOH. Incorporated ^3H-thymidine was determined by liquid scintillation spectrometry, as previously described (Freeman, E. J. et al., Hypertension, 1996, 28:104-108). Growth inhibition was defined as a reduction in the amount of ^3H-thymidine incorporation as compared to the mitogen-stimulated controls.

[4] = test system: caspase-3; assay: Caspase-3 activity in A549 cell lysates, fluorometric assay; type: cell-based, human; details: A549 cells, 100 nM; maximal at 16 and 24 h
Experimental: The specificity of the activity of each caspase substrate was also verified by assays in the presence of specific inhibitors. […] Caspase-3 activity was measured by a fluorometric assay using Ac-DEVD-AFC (Acetylated-Asp-Glu-Val-Asp-7-amino-4-trifluoromethylcoumarin) (SEQ ID NO: 9) as a specific substrate for caspase-3 and Z-DEVD-CHO as a selective caspase-3 inhibitor. Caspase-8 activity was measured by a fluorometric assay using Ac-LETD-AFC (Acetylated-Leu-Glu-Thr-Asp-7-amino-4-trifluoromethylcoumarin) (SEQ ID NO: 10) as a specific substrate and Z-LETD-CHO as a selective caspase-8 inhibitor. The data are presented as relative fluorescence units (RFU).

[5] = test system: MAP kinase kinase 5 (MEK5); assay: MEK5 expression in SK-LU-1 cells by RT-PCR and Western analysis; type: cell-based, human; details: SK-LU-1, 1% serum, 10 nM, 4 and 8 h
Experimental: RNA, isolated from cells or tissue, using the TRIzol reagent (GIBCO Invitrogen, Carlsbad, Calif.), was subjected to reverse transcriptase/real-time polymerase chain reaction as previously described (Tallant et al., Am. J. Physiol. Heart Circ. Physiol., 2005, 289:1560-1566). All reactions were performed in triplicate and 18S ribosomal RNA, amplified using the TaqMan Ribosomal RNA Control Kit (Applied Biosystems), served as an internal control. The results were quantified as Ct values, where Ct is defined as the threshold cycle of PCR at which amplified product is first detected, and defined as relative gene expression (the ratio of target/control). For RT-PCR, total RNA was isolated using the Atlas Pure Total RNA Labeling System (Clontech Laboratories, Inc). The RNA concentration was quantified by UV spectroscopy and any degradation assessed by ethidium bromide staining intensity of 28S and 18S ribosomal RNA following agarose gel electrophoresis. […] Following PCR, the amplification products were separated by polyacrylamide gel electrophoresis, visualized by autoradiography, and analyzed using the MCID imaging system.
Proteins were separated electrophoretically on SDS polyacrylamide gels, transferred to polyvinyl membranes, and incubated with primary antibodies to proteins of interest. […] The density of each immunoreactive product was quantified using the MCID imaging system. […]

[6] = test system: ZR-75-1 breast cancer cells; details: U.S. Pat. No. 7,375,073; cited from earlier work
[7] = test system: ERK2; details: SK-LU-1, 10 nM pretreatment; Gallagher et al., 2004; cited from earlier work

SMILES: CC[C@H](C)[C@H](NC(=O)[C@H](Cc1ccc(O)cc1)NC(=O)[C@@H](NC(=O)[C@H](CCCNC(=N)N)NC(=O)[C@@H](N)CC(=O)O)C(C)C)C(=O)N[C@@H](Cc1c[nH]cn1)C(=O)N1CCC[C@H]1C(=O)O [Ang-(1-7), Asp-Arg-Val-Tyr-Ile-His-Pro]
- Ki67 immunoreactivity in hyperplastic lesion ([1]; 24 μg/kg/h infusion, 84 days, saline: abundant, robust staining): little immunoreactivity
- adverse reactions or gross pathological abnormalities ([1]; 24 μg/kg/h intravenous infusion, 84 days): No adverse reactions or gross pathological abnormalities
- lung tumor multiplicity ([1]; 24 μg/kg/h intravenous infusion, 84 days, n=8, saline 12.75±1.04): 6.4±0.87 tumors/mice
- CD34 positive cells in pulmonary lesions ([1]; Ang-(1-7) infusion, n=7, saline 63.5±6.1 (n=8), percentage of total cell number per FIG. 16 legend): 37.7±5.2
- proportion of COX-2 positive cells in hyperplasias and adenomas ([1]; Ang-(1-7) infusion, n=7, saline 68.8±10.2% (n=8)): 29.3±8.2%
- reduction in the development of new tumors ([1]; Ki-ras/CCSP-rtTA bi-transgenic mice, FIG. 2): about 50%
- reduction in the proportion of COX-2 positive cells ([1]; versus saline): ~50%
- reduction in CD34 positive cells ([1]; versus saline-treated animals): ~40%
- ^3H-thymidine incorporation over time of treatment [2]: progressively reduced
- pIC50 ([3]; 48 h): 10.70
- maximal inhibition ([3]; ZR-75-1): 37.2±6.1
- ^3H-thymidine incorporation over time of treatment ([3]; ZR-75-1, 1% FBS, daily addition of 100 nM): progressively reduced
- time-dependent increase in caspase-3 activity [4]: about 2 fold
- MEK5 mRNA and protein [5]: reduced
- inhibition of PDGF- or EGF-stimulated ^3H-thymidine incorporation [6]: at least 50%
- reduction of serum-stimulated phosphorylation of ERK2 [7]: 68%
